Where two headings read alike, the source gives them in different places.
Tested on: IL-1β
Experiment: Mouse acute peritonitis model (LPS/ATP), IL-1β in peritoneal lavage fluid and blood
Format: in vivo, C57BL/6 mice
Details: 10 mg/kg oral; for inhibition at 10 mg/kg: Mus musculus, vs vehicle group
Protocol: Test Example 2: Mouse Acute Peritonitis Model Evaluation Experiment
Male C57BL/6 mice were orally administered with a 10 mg/kg dose of the test compound or control vehicle, and then injected intraperitoneally with 1 μg of E. coli 055: B5 ultrapure lipopolysaccharide (LPS) suspension 1 h later, followed by an intraperitoneal injection of 0.5 ml of 30 mM disodium salt ATP suspension (in PBS, the pH of the ATP solution was adjusted to 7.2 before injection) 2 h later. After 30 min, all animals would be euthanized by carbon dioxide, and blood and peritoneal lavage fluid would be collected. The peritoneal lavage fluid was kept at 4° C.
Preparation of peritoneal lavage fluid: The peritoneal cavity would be lavaged with ice-cold PBS (3 mL) containing 25 U/mL heparin and 10% heat-inactivated FBS. Prior to use, one tablet of the protease inhibitor mixture was added per 50 mL of buffer. The collected lavage fluid would be centrifuged (centrifugation conditions: 1000g, 4° C., 10 min) to remove cells and cell debris, and the clarified samples would be stored at −80° C. for measurement of cytokine IL-1β.
The mouse IL-1β/IL-1F2 DuoSet ELISA kit (R&D Systems) was used to measure the changes in IL-1β cytokine levels in peritoneal lavage fluid and serum. By comparing with the Vehical group, the inhibition rate of the compound on IL-1β was calculated.

SMILES: CC#Cc1ccc2c(-c3ccc(Cl)cc3O)nnc(NC[C@H](O)CO)c2c1 [Compound 062, (S)-3-((4-(4-chloro-2-hydroxyphenyl)-7-(prop-1-yn-1-yl)phthalazin-1-yl)amino) propan-1,2-diol]
- inhibitory effect on IL-1β in the in vivo animal model (in words): Conclusion: Some compounds showed inhibitory effects on IL-1β in the in vivo animal model evaluation experiment, among which compound 062 had the most significant inhibitory effect.
- inhibition at 10 mg/kg (read-out: IL-1β Peritoneal lavage fluid (inhibition rate)): 94%
- inhibition at 10 mg/kg (read-out: IL-1β Plasma (inhibition rate)): 96%
